Patent US20250248402A1, “HERBICIDAL COMPOSITIONS AND METHODS FOR CONTROLLING WEEDS” (UPL Mauritius Limited, priority 2024, published 2025)

Test system: common waterhemp, Sensitive "WUS" Population
Assay: Greenhouse dose-response, effective dose on atrazine-sensitive waterhemp
Type: in vivo, Amaranthus tuberculatus
Settings: 13 days after treatment, visual scale 0-100

Structure (SMILES): CCNc1nc(Cl)nc(NC(C)C)n1 [Atrazine (480 g/L FL), Atrazine]
- ED 20 Estimate: 11.127 g ai/ha
- ED 80 Estimate: 39.353 g ai/ha
